Laboratory results reported in PMC4664883, “Selective targeting of nuclear receptor FXR by avermectin analogues with therapeutic effects on nonalcoholic fatty liver disease” (Scientific Reports, 2015).

Tests used:
mice = tested on: mice; design: method as in PMID 19072826; conditions: cited from earlier work
[1] = tested on: other nuclear receptors tested; assay: Receptor-specific transactivation reporter assay in COS-7 cells; assay type: cell-based, human; conditions: 10 μM avermectins, Supplementary Fig. S3
Procedure: 30 Receptor-specific ligand
rifampicin; CAR, 5 μM CITCO. […] Luciferase activities
independent experiments. *p<0.001 versus DMSO control.

KK-Ay mice = assay: High-fat diet fed KK-Ay mice treated 14 days (liver histology, metabolic parameters, GTT, ITT); assay type: in vivo; conditions: for insulin sensitivity (ITT) / glucose tolerance (GTT): KK-Ay mice treated 10 days; for insulin sensitivity (ITT): 1 U/kg insulin i.p.; for glucose tolerance (GTT): 1 g/kg glucose i.p.; for serum cholesterol level / serum triglyceride level / body weight / hepatic lipid / steatosis by H&E staining of liver sections / lipid accumulation by oil red O staining of liver sections / liver morphology (colour): KK-Ay mice; for serum cholesterol level / serum triglyceride level / body weight: 1.3 mg/kg i.p. 14 days; for body weight: versus vehicle, eprinomectin and moxidectin groups; for hepatic lipid / steatosis by H&E staining of liver sections / lipid accumulation by oil red O staining of liver sections / liver morphology (colour): high-fat diet, i.p. once daily 14 days, avermectin analogues 1.3 mg/kg, GW4064 30 mg/kg
Procedure: To further confirm the lipid accumulation, we performed oil red O staining of the frozen liver sections (Fig. 2c).
(§1) 10 weeks age KK-Ay mice and C57BL/6J, homozygous FXR deficient (FXR^–/–) mice were maintained under environmentally controlled conditions with free access to standard chow diet and water as described previously. Animal experiments were conducted in the barrier facility of the Laboratory Animal Center, Xiamen University, approved by the Institutional Animal Use and Care Committee of Xiamen University, China, and the methods were carried out in accordance with the approved guidelines. Mice were fed with high fat diet containing 60% fat, 20% protein and 20% carbohydrate (Research Diets, D12492, New Brunswick, USA), and the food intake were measured every second day. […] After 6 h fasting, mice were weighed and sacrificed. Livers were weighed and taken photos, and part of each liver was fixed in 4% paraformaldehyde. Liver histology characterization was analyzed by haematoxylin and eosin (H&E) staining with paraffin-embedded sections by standard procedures. Other tissues were collected and frozen in liquid nitrogen for use, and serums were collected to measure metabolite parameters.
(§2) Fresh liver tissues were embedded in optimum cutting temperature compound (OCT) and cryosectioned. The sections were fixed in 4% paraformaldehyde in PBS, and were stained with 0.3% oil red O according to standard procedures.
Mice treated with compounds for 10 days were fasted for 6 h with free access to water. For the glucose tolerance test (GTT), 1 g/kg of glucose was i.p. injected and blood glucose was measured with the Accu-Check Performa (Roche Applied Science, Mannheim, Germany) at 0, 30, 60, 90, 120,150 and 180 min. For the insulin tolerance test (ITT), 1 U/kg of recombinant human insulin (Novolin 30R; Novo Nordisk, Bagsvaerd, Denmark) was i.p. injected, and blood glucose was measured at 0, 30, 60, 120 and 150 min after insulin injection.
(§3) Serum glucose was analyzed using glucose oxidase method (Applygen, Beijing, China). Serum cholesterol and triglyceride were analyzed using Cholesterol Assay Kit and Triglyceride Assay Kit (Bioassay Systems, USA), respectively. Liver triglyceride was analyzed using Tissue triglyceride assay kit (Applygen, Beijing, China).

Wild type C57BL/6J mice = assay: High-fat diet fed wild type mice treated with compounds; assay type: in vivo; conditions: for serum cholesterol levels / serum glucose levels: in a FXR dependent manner (WT versus KO); for amount of lipid in liver sections (oil red O): wild type mice, high-fat diet, versus vehicle
Source text: To reaffirm that the function of avermectin analogues on lipid metabolism is by directly targeting FXR signaling, we employed wild type mice and FXR gene knockout mice, both fed with high-fat diet, to study the FXR dependency of physiological effects of these avermectin analogues. […] The expression pattern of FXR target genes SHP, BSEP, solute carrier family 51 beta subunit (OSTβ) and AKR1B7 in primary hepatocytes from wild type mice and FXR gene knockout mice further confirmed the FXR-dependent manner of avermectin analogues (Supplementary Fig. S5).
as §1, §2, §3

[2] = biological target: T1, FXR ligand binding domain (LBD) (Homo sapiens, UniProt Q96RI1); assay: AlphaScreen cofactor binding assay; assay type: biochemical; conditions: for coactivators recruitment by FXR (biotin-SRC1–2, biotin-SRC2–3): 0.5 μM compound, Fig. 4a
T1 construct: made in house; host or cells: E. coli BL21 (DE3)
T1 sequence (Q96RI1 262-486 limits assumed): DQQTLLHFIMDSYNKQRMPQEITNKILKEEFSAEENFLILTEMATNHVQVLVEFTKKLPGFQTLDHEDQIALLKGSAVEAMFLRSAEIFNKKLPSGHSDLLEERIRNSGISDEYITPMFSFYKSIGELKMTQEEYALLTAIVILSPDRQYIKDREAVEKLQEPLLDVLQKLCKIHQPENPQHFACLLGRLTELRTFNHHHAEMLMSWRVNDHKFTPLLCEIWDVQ
Procedure: The binding of the cofactor peptide motifs to FXR LBD in response to ligands was determined by AlphaScreen assays using a hexahistidine detection kit from Perkins-Elmer (USA) as described before. The FXR LBD protein was purified as described previously.

FXR A291W mutation = assay: Reporter assay with mutated FXR; assay type: cell-based; conditions: 1 μM, Fig. 8e
FXR H447F mutation = assay: Reporter assay with mutated FXR; assay type: cell-based; conditions: 1 μM, Fig. 8e
Source text: For H447F mutation, the corresponding residue of histidine with a side chain of imidazole group was replaced by the nonpolar phenylalanine with a side chain of benzene ring (Fig. 8c).

[3] = tested on: genes related with lipid metabolism / FXR target genes; assay: Real-time PCR of hepatic mRNA levels in treated KK-Ay mice; assay type: in vivo; conditions: KK-Ay mice liver
Procedure: as §1
Total RNA was isolated using Tissue RNA kit (Omega Bio-Tek, GA). The first strand cDNA were obtained by TAKARA reverse transcription kit. Real-time quantitative PCR were performed on a CFX96™ Real-Time PCR Detection System (Bio-Rad) using SYBR Premix Ex TaqTM (TAKARA). Relative mRNA expression levels were normalized to actin levels.

FXR LBD = tested on: T2, FXR LBD; assay: Peptide profiling / peptide competition AlphaScreen assay; assay type: biochemical; conditions: 16 unlabelled peptides (20 μM) competing with biotin-SRC2-3; 1 μM compound
T2 construct: made in house; host or cells: E. coli BL21 (DE3)
Source text: To determine whether there is a conformational difference of FXR with various avermectin analogues, we performed peptide-profiling experiments using a panel of 16 unlabelled peptides selected from both coactivators and corepressors to compete off the binding of the third LXXLL motif of SRC2 (SRC2–3) to FXR in response to the binding of avermectin analogues (Fig. 5).
Values are the means ± SEM of three independent experiments.

FXR = biological target: T3, FXR (Homo sapiens, UniProt Q96RI1); assay: Cell-based reporter assay, transient transfection of COS-7 cells (EcRE reporter); conditions: for transcriptional activity of FXR: 1 μM compounds, Fig. 4b, EcRE reporter
T3 sequence (Q96RI1 1-472 isoform Q96RI1-2): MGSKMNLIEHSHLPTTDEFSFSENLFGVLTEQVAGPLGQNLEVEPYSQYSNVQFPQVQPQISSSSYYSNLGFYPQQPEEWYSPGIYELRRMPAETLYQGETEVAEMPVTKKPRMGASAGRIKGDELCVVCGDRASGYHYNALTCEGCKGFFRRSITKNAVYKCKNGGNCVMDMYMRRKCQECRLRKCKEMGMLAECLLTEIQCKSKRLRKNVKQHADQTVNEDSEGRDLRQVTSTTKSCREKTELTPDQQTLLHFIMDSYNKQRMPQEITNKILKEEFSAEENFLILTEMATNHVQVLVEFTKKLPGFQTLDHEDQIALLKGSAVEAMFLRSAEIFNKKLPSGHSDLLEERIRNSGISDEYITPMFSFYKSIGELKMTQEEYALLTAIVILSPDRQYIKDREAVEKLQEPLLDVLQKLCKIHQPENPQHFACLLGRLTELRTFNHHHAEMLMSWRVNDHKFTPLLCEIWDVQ
Source text: Since ligands can regulate the transcriptional activity of nuclear receptors by binding into their ligand binding pocket, we performed cell-based reporter assay to validate the results from AlphaScreen.
COS-7 cells were cotransfected with plasmids enco ding full-length nuclear receptors and their cognate response reporters as follows: human FXR with EcRE- Luc, human LXR(α and β) with LXRE- luc; human VDR with VDRE-luc; Human RXRα with RXRE- luc; human PPARs (α, δ, and γ) with PPRE-Luc; human GR o r PR with the MMTV-Luc; hum an RARα or RARβ with βRE- Luc; human PXR and CAR with PBRE-luc. 5 h after transfection,
were normalized to renilla activity co-transfected as an internal control.

diabetic mice = conditions: cited from earlier work

| coactivators recruitment by FXR (biotin-SRC1–2, biotin-SRC2–3) [2] | hepatic level of CYP8b1 [3] | Compound | impact on other nuclear receptors tested (transactivation) [1] | insulin sensitivity (ITT) (KK-Ay mice) | glucose tolerance (GTT) (KK-Ay mice) | serum cholesterol level (KK-Ay mice) | serum triglyceride level (KK-Ay mice) | body weight (KK-Ay mice) | hepatic lipid / steatosis by H&E staining of liver sections (KK-Ay mice) | lipid accumulation by oil red O staining of liver sections (KK-Ay mice) | liver morphology (colour) (KK-Ay mice) | serum cholesterol levels (Wild type C57BL/6J mice) | serum glucose levels (Wild type C57BL/6J mice) | amount of lipid in liver sections (oil red O) (Wild type C57BL/6J mice) | transcriptional activity of A291W mutated FXR (FXR A291W mutation) | hepatic expression of BSEP [3] | hepatic expression of SHP [3] | hepatic mRNA level of AKR1B7 [3] | hepatic mRNA level of SCD1 [3] | hepatic mRNA level of SREBP-1c [3] | other results |
| --- | --- | --- | --- | --- | --- | --- | --- | --- | --- | --- | --- | --- | --- | --- | --- | --- | --- | --- | --- | --- | --- |
| – | – | C[C@H](CCC(=O)O)[C@H]1CC[C@H]2[C@@H]3[C@H](O)C[C@@H]4C[C@H](O)CC[C@]4(C)[C@H]3CC[C@]12C [CDCA, chenodeoxycholic acid] | – | – | – | – | – | – | – | – | – | – | – | – | – | – | – | – | – | – | liver effect of CDCA-rich diet (mice): induce liver hypertrophy |
| – | – | CCC(C)C1OC2(C=CC1C)CC1CC(CC=C(C)C(OC3CC(OC)C(OC4CC(OC)C(O)C(C)O4)C(C)O3)C(C)C=CC=C3COC4C(O)C(C)=CC(C(=O)O1)C34O)O2 (stereo not drawn) [abamectin] | no substantial impact | significantly improved | significantly improved | significantly decreased | significantly decreased | significantly lower | nearly completely reverse the liver from hepatic steatosis | dramatically reduced the lipid accumulation | much more fresh red tissue | lowered | lowered | significantly reduced the amount of lipid | – | – | – | – | – | – | – |
| strongly promoted | decreased | CO[C@H]1C[C@H](O[C@H]2[C@H](C)O[C@@H](O[C@@H]3/C(C)=C/C[C@@H]4C[C@@H](C[C@]5(C=C[C@H](C)[C@@H](C6CCCCC6)O5)O4)OC(=O)[C@@H]4C=C(C)[C@@H](O)[C@H]5OC/C(=C\C=C\[C@@H]3C)[C@]54O)C[C@@H]2OC)O[C@@H](C)[C@@H]1O [doramectin] | no substantial impact | significantly improved | significantly improved | significantly decreased | significantly decreased | significantly lower | nearly completely reverse the liver from hepatic steatosis | dramatically reduced the lipid accumulation | much more fresh red tissue | lowered | lowered | significantly reduced the amount of lipid | abolished the transcriptional activity | induced | induced | dramatically induced | substantially decreased | substantially decreased | recruitment of nuclear receptor corepressor (NCoR)-2 by FXR ([2]; Fig. 4e): induced the recruitment; transcriptional activity of H447F mutated FXR (FXR H447F mutation): increased the FXR activity; peptide profile of ligand-bound FXR (FXR LBD): identical peptide profiles as the ivermectin; transcriptional activity of FXR (FXR): selectively activated; ligand character for FXR (FXR; concluded from AlphaScreen and reporter assays): partial agonists |
| failed to induce | did not display these regulations | CO/N=C1\C[C@]2(C[C@@H]3C[C@@H](C/C=C(\C)C[C@@H](C)/C=C/C=C4\CO[C@@H]5[C@H](O)C(C)=C[C@@H](C(=O)O3)[C@]45O)O2)O[C@H](/C(C)=C/C(C)C)[C@H]1C [moxidectin] | – | – | – | did not | did not | – | – | – | grease white | – | – | – | – | did not display these regulations | did not display these regulations | did not display these regulations | did not display these regulations | did not display these regulations | transcriptional activity of FXR (FXR): failed to activate |

| Compound | coactivators recruitment by FXR (biotin-SRC1–2, biotin-SRC2–3) [2] | hepatic level of CYP8b1 [3] | impact on other nuclear receptors tested (transactivation) [1] | insulin sensitivity (ITT) (KK-Ay mice) | glucose tolerance (GTT) (KK-Ay mice) | serum cholesterol level (KK-Ay mice) | serum triglyceride level (KK-Ay mice) | body weight (KK-Ay mice) | hepatic lipid / steatosis by H&E staining of liver sections (KK-Ay mice) | lipid accumulation by oil red O staining of liver sections (KK-Ay mice) | liver morphology (colour) (KK-Ay mice) | serum cholesterol levels (Wild type C57BL/6J mice) | serum glucose levels (Wild type C57BL/6J mice) | amount of lipid in liver sections (oil red O) (Wild type C57BL/6J mice) | transcriptional activity of A291W mutated FXR (FXR A291W mutation) | hepatic expression of BSEP [3] | hepatic expression of SHP [3] | hepatic mRNA level of AKR1B7 [3] | hepatic mRNA level of SCD1 [3] | hepatic mRNA level of SREBP-1c [3] | other results |
| --- | --- | --- | --- | --- | --- | --- | --- | --- | --- | --- | --- | --- | --- | --- | --- | --- | --- | --- | --- | --- | --- |
| CCC(C)C1OC2(CCC1C)CC1CC(CC=C(C)C(OC3CC(OC)C(OC4CC(OC)C(O)C(C)O4)C(C)O3)C(C)C=CC=C3COC4C(O)C(C)=CC(C(=O)O1)C34O)O2 (stereo not drawn) [ivermectin] | strongly promoted | decreased | – | – | – | significantly decreased | significantly decreased | significantly lower | nearly completely reverse the liver from hepatic steatosis | dramatically reduced the lipid accumulation | much more fresh red tissue | – | – | significantly reduced the amount of lipid | abolished the transcriptional activity | induced | induced | dramatically induced | substantially decreased | substantially decreased | serum cholesterol level (diabetic mice): decreased; serum glucose level (diabetic mice): decreased |
